Data taken from patent US8232288B2, “Substituted benzimidazoles, benzothiazoles and benzoxazoles” (Gruenenthal GmbH, priority 2009, dated 2012).

Columns and labels:
[1] = molecular target: T1, human B1R receptor (hB1R) (Homo sapiens, UniProt P46663); experiment: Functional investigation on the bradykinin receptor 1 (B1R), FLIPR Ca2+ assay, hB1R cells; assay type: cell-based
T1 construct: expressed in transfected cells; host or cells: CHO K1 cells
T1 sequence (P46663 1-353): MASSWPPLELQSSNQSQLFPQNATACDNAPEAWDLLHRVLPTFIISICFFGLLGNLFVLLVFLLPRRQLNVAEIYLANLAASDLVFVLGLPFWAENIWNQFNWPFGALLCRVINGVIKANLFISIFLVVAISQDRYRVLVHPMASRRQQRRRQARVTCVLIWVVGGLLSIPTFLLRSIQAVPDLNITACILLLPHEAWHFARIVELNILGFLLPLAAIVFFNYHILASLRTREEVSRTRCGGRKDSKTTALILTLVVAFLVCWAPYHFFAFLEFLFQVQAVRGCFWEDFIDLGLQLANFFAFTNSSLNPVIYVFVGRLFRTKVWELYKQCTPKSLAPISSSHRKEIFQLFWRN
Outline: (§1)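 Stably transfected CHO K1 cells expressing human or rat B1R were loaded with Fluo-4, and Ca2+ fluorescence was read on a FLIPR. Compound (10 μM) was added first to measure activation. After 10–20 min, agonist at EC80 was added (Lys-Des-Arg9-bradykinin for hB1R, Des-Arg9-bradykinin for rB1R) to give % inhibition. IC50 values came from concentration series.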

[2] = molecular target: T2, B1R receptor of the rat (rB1R) (Rattus norvegicus, UniProt P97583); experiment: Functional investigation on the bradykinin receptor 1 (B1R), FLIPR Ca2+ assay, rB1R cells; assay type: cell-based
T2 construct: expressed in transfected cells; host or cells: CHO K1 cells
T2 sequence (P97583 1-337): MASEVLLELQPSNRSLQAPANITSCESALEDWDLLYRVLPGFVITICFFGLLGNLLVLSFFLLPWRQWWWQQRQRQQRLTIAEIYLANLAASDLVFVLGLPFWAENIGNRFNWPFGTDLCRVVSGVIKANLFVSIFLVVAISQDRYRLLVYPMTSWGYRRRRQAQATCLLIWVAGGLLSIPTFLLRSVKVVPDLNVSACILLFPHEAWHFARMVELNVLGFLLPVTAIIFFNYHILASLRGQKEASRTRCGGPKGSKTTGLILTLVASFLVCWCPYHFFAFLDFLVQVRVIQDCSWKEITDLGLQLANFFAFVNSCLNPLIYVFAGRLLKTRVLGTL
Outline: as §1

`COc1cc(C)c(S(=O)(=O)N(C)C(C)c2nc3cccc(C(=O)N4CCC5(CCN(Cc6ccccn6)CC5)CC4)c3[nH]2)c(C)c1` (stereo not drawn) [I_CC-26, 4-Methoxy-N,2,6-trimethyl-N-[1-[7-[9-(pyridin-2-yl-methyl)-3,9-diazaspiro[5.5]undecane-3-carbonyl]-1H-benzoimidazol-2-yl]-ethyl]-benzenesulfonic acid amide] gave an inhibition at 10 µM [1] of 91% and an inhibition at 10 µM [2] of 89%.

For `COc1cc(C)c(S(=O)(=O)N(C)C2(c3nc4cccc(C(=O)N5CCC6(CC5)CCN(c5ccncc5)CC6)c4[nH]3)CC2)c(C)c1` [I_12, 4-methoxy-N,2,6-trimethyl-N-[1-[7-(9-pyridin-4-yl-3,9-diazaspiro[5.5]undecane-3-carbonyl)-1H-benzoimidazol-2-yl]-cyclopropyl]-benzenesulfonic acid amide], the inhibition at 10 µM [1] was 98% and the inhibition at 10 µM [2] was 92%.

`COc1cc(C)c(S(=O)(=O)N(C)Cc2nc3ccc(F)c(C(=O)N4CCC5(CC4)CCN(c4ccncc4)CC5)c3[nH]2)c(C)c1` [I_13, N-[[6-fluoro-7-(9-pyridin-4-yl-3,9-diazaspiro[5.5]undecane-3-carbonyl)-1H-benzoimidazol-2-yl]-methyl]-4-methoxy-N,2,6-trimethyl-benzenesulfonic acid amide] showed an inhibition at 10 µM [1] of 98% and an inhibition at 10 µM [2] of 93%.

Molecule `COc1cc(C)c(S(=O)(=O)N2CCCC2c2nc3cccc(C(=O)N4CCC5(CC4)CCN(c4ccncc4)CC5)c3[nH]2)c(C)c1` (stereo not drawn) [I_19, [2-[1-[(4-methoxy-2,6-dimethyl-phenyl)sulfonyl]-pyrrolidin-2-yl]-3H-benzoimidazol-4-yl]-(9-pyridin-4-yl-3,9-diazaspiro[5.5]undecan-3-yl)-methanone] has an inhibition at 10 µM [1] of 100% and an inhibition at 10 µM [2] of 76%.

`COc1cc(C)c(S(=O)(=O)N(C)C(C)c2nc3cccc(C(=O)N4CCC5(CCN(Cc6cccnc6)CC5)CC4)c3[nH]2)c(C)c1` (stereo not drawn) [I_CC-28, 4-Methoxy-N,2,6-trimethyl-N-[1-[7-[9-(pyridin-3-yl-methyl)-3,9-diazaspiro[5.5]undecane-3-carbonyl]-1H-benzoimidazol-2-yl]-ethyl]-benzenesulfonic acid amide] showed an inhibition at 10 µM [1] of 96% and an inhibition at 10 µM [2] of 85%.

`Cc1cccc(Cl)c1S(=O)(=O)N(C)Cc1nc2ccc(C(=O)N3CCC4(CC3)CCN(c3ccncc3)CC4)cc2[nH]1` [I_23, 2-chloro-N,6-dimethyl-N-[[6-(9-pyridin-4-yl-3,9-diazaspiro[5.5]undecane-3-carbonyl)-1H-benzoimidazol-2-yl]-methyl]-benzenesulfonic acid amide] gave an inhibition at 10 µM [1] of 100% and an inhibition at 10 µM [2] of 101%.
